# Test results reported in patent US20150157021A1, “NEW ANTIFUNGAL COMPOSITIONS” (DSM IP ASSETS B.V., priority 2012, published 2015).
# Tests used:
# Format in all cases: in vivo
# Botrytis cinerea [1] = assay: Treatment of wounded sweet peppers inoculated with Botrytis cinerea (Examples 9, 10); details: 20° C., 400 ppm natamycin
# Procedure: Ten fresh, organic sweet peppers were used per treatment. Each sweet pepper was soaked in a 180 ppm hypochlorite solution for 10 minutes, then rinsed thoroughly with fresh tap water and dried. The peel of each disinfected sweet pepper was wounded once using a cork borer according to the method described by de Lapeyre de Bellaire and Dubois (1987). Subsequently, each wound was inoculated with 10 μl of a Botrytis cinerea suspension containing 1×10^5 of spores/ml. After incubation for 3 hours at 20° C., each wound and the skin area of 0.5 cm around the wound was treated with in total 75 μl of a freshly prepared aqueous antifungal composition comprising either 400 ppm natamycin (DSM Food Specialties, Delft, The Netherlands), 600 ppm fenhexamid or both. Each antifungal composition also comprised 3.2% (w/w) beeswax, 0.8% (w/w) glycerol, 0.7% (w/w) polyoxyethylene sorbitan monostearate (Tween 60), 0.2% (w/w) polyoxyethylene sorbitan monooleate (Tween 80), 0.05% (w/w) methylhydroxyethyl-cellulose (MHEC), 0.03% (w/w) anti-foaming agent, 0.02% (w/w) xanthan gum, 0.02% (w/w) citric acid, 0.01% (w/w) lactic acid and 0.01% potassium sorbate. A composition without natamycin or fenhexamid was used as control.
# The treated sweet peppers were incubated in a closed box in the dark at 20° C. and assessed on mould growth during a 26-day incubation period. The antifungal activity (in %) of the individual and combined active ingredients was determined by calculating the reduction in mould growth observed on the sweet peppers treated with the antifungal composition in comparison to the mould growth on the sweet peppers treated with the control composition according to the Colby method (Colby, 1967) described in Example 5.
# The experiment was conducted as described in Example 9, except for the fact that each wounded and inoculated sweet pepper was treated with 75 μl of a freshly prepared aqueous antifungal composition comprising either 400 ppm natamycin (DSM Food Specialties, Delft, The Netherlands), 800 ppm carboxin or both. The treated sweet peppers were incubated in a closed box in the dark at 20° C. and assessed on mould growth during a 26-day incubation period. During incubation, the treated sweet peppers were assessed on mould growth according to the method described in Example 9.
# Penicillium italicum = assay: Treatment of wounded oranges inoculated with Penicillium italicum (Examples 7, 8); details: 20° C.
# Procedure: Ten fresh, organic oranges were used per treatment. Each orange was soaked in a 180 ppm hypochlorite solution for 10 minutes, then rinsed thoroughly with fresh tap water and dried. The peel of each disinfected orange was wounded once using a cork borer according to the method described by de Lapeyre de Bellaire and Dubois (1987). Subsequently, each wound was inoculated with 10 μl of a Penicillium italicum suspension containing 1×10^5 of spores/ml. After incubation for 3 hours at 20° C., each wound and the orange peel area of 1 cm around the wound was treated with in total 150 μl of a freshly prepared aqueous antifungal composition comprising either 500 ppm natamycin (DSM Food Specialties, Delft, The Netherlands), 800 ppm boscalid or both. Each antifungal composition also comprised 3.2% (w/w) beeswax, 0.8% (w/w) glycerol, 0.7% (w/w) polyoxyethylene sorbitan monostearate (Tween 60), 0.2% (w/w) polyoxyethylene sorbitan monooleate (Tween 80), 0.05% (w/w) methylhydroxyethyl-cellulose (MHEC), 0.03% (w/w) anti-foaming agent, 0.02% (w/w) xanthan gum, 0.02% (w/w) citric acid, 0.01% (w/w) lactic acid and 0.01% potassium sorbate. A composition without natamycin or boscalid was used as control. […] The treated oranges were incubated in a closed box in the dark at 20° C. and assessed on mould growth during a 17-day incubation period. The antifungal activity (in %) of the individual and combined active ingredients was determined by calculating the reduction in mould growth observed on the oranges treated with the antifungal composition in comparison to the mould growth on the oranges treated with the control composition according to the Colby method (Colby, 1967) described in Example 5.
# The experiment was conducted as described in Example 7, except for the fact that each wounded and inoculated orange was treated with 150 μl of a freshly prepared aqueous antifungal composition comprising either 250 ppm natamycin (DSM Food Specialties, Delft, The Netherlands), 400 ppm boscalid or both. The treated oranges were incubated in a closed box in the dark at 20° C. and assessed on mould growth during a 18-day incubation period. During incubation, the treated oranges were assessed on mould growth according to the method described in Example 7.
# Botrytis cinerea [2] = assay: Treatment of wounded strawberries inoculated with Botrytis cinerea (Examples 5, 6); details: for Observed antifungal activity O (%): strawberries, 20° C.
# Procedure: Twelve fresh, organic strawberries were used per treatment. Each strawberry was wounded with a 0.5 mm long cut and each wound was inoculated with 10 μl of a Botrytis cinerea suspension containing 1×10^5 of spores/ml. After a 3-hour incubation period at 20° C., each strawberry was dipped individually for 1 minute in a freshly prepared aqueous antifungal composition comprising either 500 ppm natamycin (DSM Food Specialties, Delft, The Netherlands), 500 ppm fenhexamid or both. Each antifungal composition also comprised 3.2% (w/w) beeswax, 0.8% (w/w) glycerol, 0.7% (w/w) polyoxyethylene sorbitan monostearate (Tween 60), 0.1% (w/w) polyoxyethylene sorbitan monooleate (Tween 80), 0.05% (w/w) methylhydroxyethyl-cellulose (MHEC), 0.03% (w/w) anti-foaming agent, 0.02% (w/w) xanthan gum, 0.02% (w/w) citric acid, 0.01% (w/w) lactic acid and 0.01% potassium sorbate. A composition without natamycin or fenhexamid was used as control. […] The treated strawberries were incubated in a closed box in the dark at 20° C. for 11 days.
# The expected antifungal activity (E in %) of the combined antifungal composition comprising both active ingredients was calculated according to the Colby equation (Colby, 1967): […]
# wherein X and Y are the observed antifungal activities (in %) of the individual active ingredients X and Y, respectively.
# The experiment was conducted as described in Example 5, except for the fact that each wounded and inoculated strawberry was dipped individually for 1 minute in a freshly prepared aqueous antifungal composition comprising either 250 ppm natamycin (DSM Food Specialties, Delft, The Netherlands), 250 ppm fenhexamid or both. The treated strawberries were incubated in a closed box in the dark at 20° C. for 10 days. During incubation, the treated strawberries were assessed on mould growth according to the two methods described in Example 5.
compound,measurement,setting,value
"CC1=C(C(=O)Nc2ccccc2)SCCO1 [Carboxin, carboxin]",Observed antifungal activity O (%),"Botrytis cinerea [1]; 17-19 days, 800 ppm carboxin or both",67%
same,Observed antifungal activity O (%),"Botrytis cinerea [1]; 20-21 days, 800 ppm carboxin or both",55%
same,Observed antifungal activity O (%),"Botrytis cinerea [1]; 22 days, 800 ppm carboxin or both",45%
same,Observed antifungal activity O (%),"Botrytis cinerea [1]; 24 days, 800 ppm carboxin or both",42%
same,Observed antifungal activity O (%),"Botrytis cinerea [1]; 25 days, 800 ppm carboxin or both",41%
same,Observed antifungal activity O (%),"Botrytis cinerea [1]; 26 days, 800 ppm carboxin or both",38%
"O=C(Nc1ccccc1-c1ccc(Cl)cc1)c1cccnc1Cl [Boscalid, boscalid]",Observed antifungal activity O (%),"Penicillium italicum; 7 days, 500 ppm natamycin, 800 ppm boscalid or both",54%
same,Observed antifungal activity O (%),"Penicillium italicum; 8 days, 500 ppm natamycin, 800 ppm boscalid or both",40%
same,Observed antifungal activity O (%),"Penicillium italicum; 9 days, 500 ppm natamycin, 800 ppm boscalid or both",39%
same,Observed antifungal activity O (%),"Penicillium italicum; 10 days, 500 ppm natamycin, 800 ppm boscalid or both",29%
same,Observed antifungal activity O (%),"Penicillium italicum; 11 days, 250 ppm natamycin, 400 ppm boscalid or both",35%
same,Observed antifungal activity O (%),"Penicillium italicum; 11 days, 500 ppm natamycin, 800 ppm boscalid or both",35%
same,Observed antifungal activity O (%),"Penicillium italicum; 12 days, 250 ppm natamycin, 400 ppm boscalid or both",22%
same,Observed antifungal activity O (%),"Penicillium italicum; 12 days, 500 ppm natamycin, 800 ppm boscalid or both",18%
same,Observed antifungal activity O (%),"Penicillium italicum; 13 days, 250 ppm natamycin, 400 ppm boscalid or both",24%
same,Observed antifungal activity O (%),"Penicillium italicum; 13 days, 500 ppm natamycin, 800 ppm boscalid or both",20%
same,Observed antifungal activity O (%),"Penicillium italicum; 14 days, 250 ppm natamycin, 400 ppm boscalid or both",15%
same,Observed antifungal activity O (%),"Penicillium italicum; 14 days, 500 ppm natamycin, 800 ppm boscalid or both",8%
same,Observed antifungal activity O (%),"Penicillium italicum; 15 days, 250 ppm natamycin, 400 ppm boscalid or both",10%
same,Observed antifungal activity O (%),"Penicillium italicum; 15 days, 500 ppm natamycin, 800 ppm boscalid or both",8%
same,Observed antifungal activity O (%),"Penicillium italicum; 17 days, 250 ppm natamycin, 400 ppm boscalid or both",6%
same,Observed antifungal activity O (%),"Penicillium italicum; 17 days, 500 ppm natamycin, 800 ppm boscalid or both",0%
same,Observed antifungal activity O (%),"Penicillium italicum; 18 days, 250 ppm natamycin, 400 ppm boscalid or both",1%
"CC1(C(=O)Nc2ccc(O)c(Cl)c2Cl)CCCCC1 [Fenhexamid, fenhexamid]",Observed antifungal activity O (%),"Botrytis cinerea [1]; 13-17 days, 600 ppm fenhexamid or both",0%
same,Observed antifungal activity O (%),"Botrytis cinerea [1]; 18-22 days, 600 ppm fenhexamid or both",0%
same,Observed antifungal activity O (%),"Botrytis cinerea [1]; 6 days, 600 ppm fenhexamid or both",0%
same,Observed antifungal activity O (%),"Botrytis cinerea [1]; 8 days, 600 ppm fenhexamid or both",0%
same,Observed antifungal activity O (%),"Botrytis cinerea [1]; 10 days, 600 ppm fenhexamid or both",00%
same,Observed antifungal activity O (%),"Botrytis cinerea [1]; 11 days, 600 ppm fenhexamid or both",0%
same,Observed antifungal activity O (%),"Botrytis cinerea [1]; 24 days, 600 ppm fenhexamid or both",0%
same,Observed antifungal activity O (%),"Botrytis cinerea [1]; 25 days, 600 ppm fenhexamid or both",0%
same,Observed antifungal activity O (%),"Botrytis cinerea [1]; 26 days, 600 ppm fenhexamid or both",0%
same,Number of moulded strawberries/total number of 12 strawberries,"Botrytis cinerea [2]; Day 5, 20° C., 250 ppm natamycin, 250 ppm fenhexamid or both",11/12
same,Number of moulded strawberries/total number of 12 strawberries,"Botrytis cinerea [2]; Day 5, 20° C., 250 ppm natamycin, 250 ppm fenhexamid or both, listed as fenhexamid",11
same,Number of moulded strawberries/total number of 12 strawberries,"Botrytis cinerea [2]; Day 6, 20° C., 500 ppm natamycin, 500 ppm fenhexamid or both",12/12
same,Number of moulded strawberries/total number of 12 strawberries,"Botrytis cinerea [2]; Day 6-7, 20° C., 250 ppm natamycin, 250 ppm fenhexamid or both",11/12
same,Number of moulded strawberries/total number of 12 strawberries,"Botrytis cinerea [2]; Day 6-7, 20° C., 250 ppm natamycin, 250 ppm fenhexamid or both, listed as fenhexamid",11
same,Number of moulded strawberries/total number of 12 strawberries,"Botrytis cinerea [2]; Day 7-8, 20° C., 500 ppm natamycin, 500 ppm fenhexamid or both",12/12
same,Number of moulded strawberries/total number of 12 strawberries,"Botrytis cinerea [2]; Day 8, 20° C., 250 ppm natamycin, 250 ppm fenhexamid or both",12/12
same,Number of moulded strawberries/total number of 12 strawberries,"Botrytis cinerea [2]; Day 8, 20° C., 250 ppm natamycin, 250 ppm fenhexamid or both, listed as fenhexamid",12
same,Number of moulded strawberries/total number of 12 strawberries,"Botrytis cinerea [2]; Day 9, 20° C., 500 ppm natamycin, 500 ppm fenhexamid or both",12/12
same,Number of moulded strawberries of 12,"Botrytis cinerea [2]; after 6 through 9 days of incubation, 500 ppm natamycin alone or 500 ppm fenhexamid alone",12
same,Observed antifungal activity O (%),"Botrytis cinerea [2]; 4 days, 500 ppm natamycin, 500 ppm fenhexamid or both",22%
same,Observed antifungal activity O (%),"Botrytis cinerea [2]; 5 days, 500 ppm natamycin, 500 ppm fenhexamid or both",25%
same,Observed antifungal activity O (%),"Botrytis cinerea [2]; 6 days, 500 ppm natamycin, 500 ppm fenhexamid or both",0%
same,Observed antifungal activity O (%),"Botrytis cinerea [2]; 7 days, 500 ppm natamycin, 500 ppm fenhexamid or both",0%
same,Observed antifungal activity O (%),"Botrytis cinerea [2]; 8 days, 250 ppm natamycin, 250 ppm fenhexamid or both",7.5%
same,Observed antifungal activity O (%),"Botrytis cinerea [2]; 8 days, 500 ppm natamycin, 500 ppm fenhexamid or both",0%
same,Observed antifungal activity O (%),"Botrytis cinerea [2]; 9 days, 250 ppm natamycin, 250 ppm fenhexamid or both",0%
same,Observed antifungal activity O (%),"Botrytis cinerea [2]; 9 days, 500 ppm natamycin, 500 ppm fenhexamid or both",0%
same,Observed antifungal activity O (%),"Botrytis cinerea [2]; 10 days, 250 ppm natamycin, 250 ppm fenhexamid or both",0%
same,Observed antifungal activity O (%),"Botrytis cinerea [2]; 10 days, 500 ppm natamycin, 500 ppm fenhexamid or both",0%
same,Observed antifungal activity O (%),"Botrytis cinerea [2]; 11 days, 500 ppm natamycin, 500 ppm fenhexamid or both",0%
